The source of these data is US20240335541A1, “NANOMATERIALS COMPRISING DIAMINES” (Beam Therapeutics Inc., priority 2021, published 2024).

Each structure is given as a SMILES string.

Common to all, as to assay: Barcoded pooled LNP biodistribution screen, fold above input (FAI)
What all share (format): in vivo

Data set [1] relates to Spleen. To be noted: pooled LNP IV tail vein, mice, 4 hours post-dose. On the procedure: (§1) Male and female mice aged approximately 8-12 weeks were used for studies described by the present Example. Each mouse was temporarily restrained and pooled LNP was administered IV via tail vein injection in up to five animals per experiment. Age-matched mice was also used to administer vehicle (1×TBS) via tail vein injection in up to three animals per experiment. Additional routes of administration can also be conducted including intracerebral ventricular (ICV), intracisterna manga (ICM), intrathecal (IT), intramuscular (IM), nebulization, intranasal (IN), subcutaneous (SC), intraarticular, and intradermal (ID). At 4 hours post-dose, tissues including liver, spleen, bone marrow, testes, gastrocnemius, quadricep, lung, heart, kidney, and pancreas may be collected for analysis.
(§2) Liver, kidney, lung, and muscle (e.g. skeletal and cardiac) tissues may be mechanically, and then enzymatically digested using a mixture of proteinases, then passed through a 70 μm filter to generate single cell suspensions. Spleen tissues were mechanically digested to generate single cell suspensions. Tissues were treated with ACK buffer to lyse red blood cells, and then stained with fluorescently-labeled antibodies for flow cytometry and fluorescence-activated cell sorting (FACS). Commercially available antibodies were used in the present example. Using a BD FACSMelody (Becton Dickinson), samples were acquired via flow cytometry to generate gates prior to sorting. In general, the gating structure was size→singlet cells→live cells→cells of interest. T cells were defined as CD45+CD3+, monocytes are defined as CD45+CD11b+, and B cells are defined as CD45+CD19+. Endothelial cells were defined as CD31+, monocytes and Kupffer cells as CD45+CD11b+ and hepatocytes and myocytes were defined as CD31−/CD45− in the liver and muscle, respectively. Tissues from vehicle-dosed mice were used to set the gates for sorting.
(§3) RNA from tissues were extracted using the Reliaprep RNA extraction kit, and libraries were prepared using the RNAseq kit, and sequenced on either a MiSeq or NextSeq500.
(§4) To screen for preferential LNP delivery to a target tissues, the relative abundance of each barcode in one or more target tissues was measured and compared to the relative abundance of each barcode to its corresponding relative input abundance to determine fold above input (FAI) for each barcode. If the FAI of a barcode in a target tissue is above a threshold or above the FAI of a different LNP in the same tissue, the LNP can be identified as preferentially delivering to the target tissue.
(§5) The FAI is the normalized relative abundance of a barcode in a selected sample as compared to its frequency in the input. The FAI of a barcode indicates how a LNP's abundance changes relative to the rest of the LNP pool. The FAI value of the barcode was calculated by normalizing the relative abundance in the barcode sequence counts in the isolated samples to its relative abundance in the administration input. […] The FAI then indicates the performance of an LNP relative to the input LNP composition.

Data set [2] relates to Liver. The conditions noted are these: Table 4 screening experiment; pooled LNP IV tail vein, mice, 4 hours post-dose. As to the method:
as §1, §2, §3, §4, §5

Data set [3] concerns Lung. The conditions noted are these: pooled LNP IV tail vein, mice, 4 hours post-dose. On the procedure: as §1, §2, §3, §4, §5

With `CCCCC/C=C\C/C=C\CCCCCCCCC(CCCCCCCC/C=C\C/C=C\CCCCC)OC(=O)CCCN(C)C` [MC3, (6Z,9Z,28Z,31Z)-heptatriaconta-6,9,28,31-tetraen-19-yl 4-(dimethylamino) butanoate], the “FAI (Spleen)” value in data set [1] (Table 4 screening experiment) is reported as 1.94; in data set [1] (Table 5 screening experiment), 0.39. For the same compound, the “FAI (Liver)” value in data set [2] came out at 0.86. Further, the entries for the “FAI (Lung)” value in data set [3] (Table 4 screening experiment) and in data set [3] (Table 5 screening experiment) were 1.13 and 0.50, respectively.
